Measured values: publication PMC11502375, “Cytochrome P450 VvCYP76F14 dominates the production of wine bouquet precursors in wine grapes” (Frontiers in Plant Science, 2024)

What was measured:
[1] = molecular target: VvCYP76F14 ('Yanniang No.2', Full-Bodied type) (Vitis vinifera, UniProt A0A1B2ZBX8, I173L, form not given); settings: 1 mM NADPH; ATR1 reductase (VvCYP76F14:ATR1 2:1); 100 mM Na+/K+ phosphate pH 5.0; 25 °C; 1 h
[2] = molecular target: VvCYP76F14 ('Yanniang No.2', Full-Bodied type) (Vitis vinifera, UniProt A0A1B2ZBX8); settings: 1 mM NADPH; ATR1 reductase (VvCYP76F14:ATR1 2:1); 100 mM Na+/K+ phosphate pH 5.0; 25 °C; 1 h
Chain of VvCYP76F14 ('Yanniang No.2', Full-Bodied type) (Vitis vinifera, UniProt A0A1B2ZBX8) (A0A1B2ZBX8 entry or part of it): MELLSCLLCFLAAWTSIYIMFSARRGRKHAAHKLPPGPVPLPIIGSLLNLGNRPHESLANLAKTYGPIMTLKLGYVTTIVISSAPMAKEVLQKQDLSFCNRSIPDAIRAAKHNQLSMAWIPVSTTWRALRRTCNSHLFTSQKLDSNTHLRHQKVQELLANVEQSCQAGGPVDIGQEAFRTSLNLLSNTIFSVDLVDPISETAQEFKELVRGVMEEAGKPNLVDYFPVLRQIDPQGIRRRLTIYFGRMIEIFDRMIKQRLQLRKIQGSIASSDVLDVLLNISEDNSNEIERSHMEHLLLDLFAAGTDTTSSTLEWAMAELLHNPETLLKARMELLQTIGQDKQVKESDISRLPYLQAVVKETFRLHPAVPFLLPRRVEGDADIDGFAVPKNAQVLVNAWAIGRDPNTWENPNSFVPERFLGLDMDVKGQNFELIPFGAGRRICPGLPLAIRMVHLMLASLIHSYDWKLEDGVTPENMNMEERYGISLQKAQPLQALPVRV

[3] = molecular target: T1, VvCYP76F14 ('Marselan', Aromatic type) (Vitis vinifera, UniProt A0A1B2ZBX8); experiment: substrate depletion by HPLC-HRMS; format: biochemical; settings: 1 mM NADPH; ATR1 reductase; pH 5.0; 25 °C; 1 h
T1 construct: 499 residues; natural allele, versus Yanniang No.2: N46S/N111K/R175Q/L222V/M264I/S286N/L298V/K325T/E378G/T380A/E383D/T386A; MBP fusion in E. coli, MBP cut off with TEV protease; reductase partner Arabidopsis ATR1
T1 sequence (A0A1B2ZBX8 entry or part of it): as above

[4] = molecular target: VvCYP76F14 ('Yanniang No.2', Full-Bodied type) (Vitis vinifera, UniProt A0A1B2ZBX8, L351V, form not given); settings: 1 mM NADPH; ATR1 reductase (VvCYP76F14:ATR1 2:1); 100 mM Na+/K+ phosphate pH 5.0; 25 °C; 1 h
Chain of VvCYP76F14 ('Yanniang No.2', Full-Bodied type) (Vitis vinifera, UniProt A0A1B2ZBX8, L351V, form not given) (A0A1B2ZBX8 entry or part of it L351V, form open): as the sequence (A0A1B2ZBX8 entry or part of it) above, with L351V counted along it

[5] = molecular target: VvCYP76F14 ('Yanniang No.2', Full-Bodied type) (Vitis vinifera, UniProt A0A1B2ZBX8, E431G, form not given); settings: 1 mM NADPH; ATR1 reductase (VvCYP76F14:ATR1 2:1); 100 mM Na+/K+ phosphate pH 5.0; 25 °C; 1 h
Chain of VvCYP76F14 ('Yanniang No.2', Full-Bodied type) (Vitis vinifera, UniProt A0A1B2ZBX8, E431G, form not given) (A0A1B2ZBX8 entry or part of it E431G, form open): as the sequence (A0A1B2ZBX8 entry or part of it) above, with E431G counted along it

Chain of VvCYP76F14 ('Yanniang No.2', Full-Bodied type) (Vitis vinifera, UniProt A0A1B2ZBX8, I173L, form not given) (A0A1B2ZBX8 entry or part of it I173L, form open): as the sequence (A0A1B2ZBX8 entry or part of it) above, with I173L counted along it

| Compound | Km [1] [µM] | Km [2] [µM] | specific activity [3] | Km [4] [µM] | Km [5] [µM] |
| --- | --- | --- | --- | --- | --- |
| C=CC(C)(O)CC/C=C(\C)CO (centres unmarked) [(E)-8-hydroxylinalool] | 76.7 ± 7.22 | 29.1 ± 2.66 | (E)-8-hydroxylinalool (dehydrogenation), and (E)-8-oxolinalool (carboxylation) as substrates | 30.6 ± 2.85 | 65 ± 6.98 |
| C=CC(C)(O)CC/C=C(\C)C=O (centres unmarked) [(E)-8-oxolinalool] | 90.8 ± 12.2 | 41.4 ± 3.93 |  | 41.9 ± 5.24 | 88.5 ± 9.85 |
| C=CC(C)(O)CCC=C(C)C (centres unmarked) [linalool] | 151 ± 14.6 | 66.2 ± 5.63 | All three VvCYP76F14s demonstrated catalytic activity in reactions utilizing linalool (hydroxylation) | 67.6 ± 6.94 | 144 ± 15.6 |
